One data set addresses T1, KDM5B (Homo sapiens, UniProt Q9UGL1).
T1 construct: purchased Reaction Biology Corp (assay run there as a contract service)
In words: KDM5B enzymatic assay (CisBio HTRF). In kind it is biochemical. The method, then:
KDM5A and 5B were tested using CisBio HTRF assay platform by Reaction Biology Corp (Malvern, PA). All concentrations are final unless noted otherwise. Inhibitors were pre-incubated with 2.5 nM KDM5A or 1.2 nM KDM5B in a 5 μL reaction mixture containing 50 mM HEPES (pH 7.5), 50 mM NaCl, 0.01% Tween 20, 0.01% BSA for 15 min temperature. The reaction was initiated by addition of 5 μL of 50 nM Biotin-H3K4me3 and incubated with gentle shaking for 45 min at RT. The reaction was quenched with 10 mM EDTA and 200 mM potassium fluoride. Upon addition of Eu-Antibody and Streptavidine-XL665, the mixture was incubated for 2 hours in the dark. The fluorescence resonance energy transfer was measured using an excitation wavelength of 320 nm and emission wavelength of 665 nm on an Envision plate reader (Perkin Elmer).
(§1) Data was analyzed using GraphPad Prism 6.0 (La Jolla, CA). […] IC50 values were calculated as an average of at least two independent experiments.
For orientation: TR-FRET usually uses a lanthanide donor and a delayed reading to cut background.

In a further data set the target is T2, KDM5D (Homo sapiens, UniProt Q9BY66).
T2 construct: purchased Eurofins Cerep SA (assay run there as a contract service)
Kind of data set: KDM5D enzymatic assay (LANCE TR-FRET). The format is biochemical. The conditions noted are these: IC50 of KDM5D over KDM5A. The method, then: KDM5D was tested using a LANCE TR-FRET assay by Eurofins Cerep SA (France). All concentrations were final unless noted otherwise. Inhibitors were added to a mixture containing 45 mM HEPES/Tris-HCl (pH 7.5), 5 μM ferrous ammonium sulfate, 100 μM ascorbic acid, 10 μM 2-oxoglutarate, 0.01% Tween 20, 0.01% BSA, and 10 ng of enzyme, followed by addition of 100 nM biotin-H3K4me3 substrate. The 10 μL reaction mixture was incubated for 10 min at room temperature and quenched through the addition of 1 mM EDTA to reach a final concentration of 0.33 mM EDTA. After 5 min, the Eu-labeled anti-methyl histone H3K4me1-2 antibody and the Ulight streptavidin were added, and the mixture was incubated for 60 min. The fluorescence resonance energy transfer was measured using an excitation wavelength of 320 nm and emission wavelengths of 620 nm and 665 nm on an Envision plate reader (Perkin Elmer).
as §1

The target in the next data set is T3, G9a (Homo sapiens, UniProt Q96KQ7).
T3 construct: 786-1210; purchased RBC (read as Reaction Biology Corporation, named)
In words: Histone methyltransferase enzymatic assay, G9a. The conditions noted are these: enzyme conc. 100 nM. The format is biochemical. The method, then: (§2) Histone methyltransferase assays were performed in 96-well half-area optiplates (PerkinElmer) at room temperature. All concentrations are final unless noted otherwise. Compounds were serially diluted in DMSO and the final DMSO concentration was 1%. A 24 μL reaction mixture contained compound, enzyme, 200 nM of nucleosome or histone substrate, 400 nM ^3H-SAM (83.1 Ci/mmol), 50 mM Tris-HCl (pH 8.0), 50 mM NaCl, 5 mM MgCl2, 1 mM DTT, and 0.01% Tween-20. The plate was sealed, mixed on a Titramax plate shaker at 1200 rpm for 30 sec, and incubated at room temperature for 60 min. The reaction was quenched by addition of 24 μL mixture containing 5 mg/mL PVT-PEI beads and 300 μM unlabeled SAM in water. The plate was sealed, mixed as previously noted, incubated overnight, and read on a TopCount plate reader (PerkinElmer).
as §1

A further data set has as its target KDM1A (Homo sapiens, UniProt O60341). In words: KDM1A enzymatic assay (AlphaLISA, NAD). The format is biochemical. The method, then:
The KDM1 assay was conducted in the presence of NAD but without Fe(II) or ascorbic acid. A 10 μL reaction mixture containing 50 mM Tris-HCl (pH 9.0), 50 mM NaCl, 0.01% Tween-20, 0.25 nM of enzyme, and 1 mM NAD was pre-incubated for 10 min. The reaction was started by addition of 5 μL of H3(1–21)K4 me1, and the reaction mixture was incubated for 60 min. The reaction was quenched with 10 μL AlphaLISA Acceptor beads (1:200) in Epigenetics Buffer and the reaction mixture was incubated for 60 min. The Donor beads were diluted 1:200 into Epigenetics Buffer in the dark, and 10 μL of this mixture was added to each well and incubated for another 60 min in the dark. The assay plates were read on an Enspire plate reader (PerkinElmer) using a standard AlphaLISA program.
as §1
(In general: Bead proximity is the source of the signal in Alpha formats.)

The next data set has as its target T4, NSD1 (Homo sapiens, UniProt Q96L73).
T4 construct: 1538-2696; purchased RBC (read as Reaction Biology Corporation, named)
Kind of data set: Histone methyltransferase enzymatic assay, NSD1. The conditions noted are these: enzyme conc. 50 nM. The format is biochemical. The method, then: as §2, §1

A further data set can be described thus: Tolerability in rats. The conditions noted are these: GS-5801 doses tested (0.3-30 mg/kg p.o. once daily for five days). The format is in vivo.

In general, pIC50 refers to the negative decadic logarithm of the IC50, by convention in mol/L.

Molecules are shown by their SMILES. pIC50: −log10 of the molar value. Where only a bound is given, the exact number is not on record here.

T1 sequence (Q9UGL1 whole entry): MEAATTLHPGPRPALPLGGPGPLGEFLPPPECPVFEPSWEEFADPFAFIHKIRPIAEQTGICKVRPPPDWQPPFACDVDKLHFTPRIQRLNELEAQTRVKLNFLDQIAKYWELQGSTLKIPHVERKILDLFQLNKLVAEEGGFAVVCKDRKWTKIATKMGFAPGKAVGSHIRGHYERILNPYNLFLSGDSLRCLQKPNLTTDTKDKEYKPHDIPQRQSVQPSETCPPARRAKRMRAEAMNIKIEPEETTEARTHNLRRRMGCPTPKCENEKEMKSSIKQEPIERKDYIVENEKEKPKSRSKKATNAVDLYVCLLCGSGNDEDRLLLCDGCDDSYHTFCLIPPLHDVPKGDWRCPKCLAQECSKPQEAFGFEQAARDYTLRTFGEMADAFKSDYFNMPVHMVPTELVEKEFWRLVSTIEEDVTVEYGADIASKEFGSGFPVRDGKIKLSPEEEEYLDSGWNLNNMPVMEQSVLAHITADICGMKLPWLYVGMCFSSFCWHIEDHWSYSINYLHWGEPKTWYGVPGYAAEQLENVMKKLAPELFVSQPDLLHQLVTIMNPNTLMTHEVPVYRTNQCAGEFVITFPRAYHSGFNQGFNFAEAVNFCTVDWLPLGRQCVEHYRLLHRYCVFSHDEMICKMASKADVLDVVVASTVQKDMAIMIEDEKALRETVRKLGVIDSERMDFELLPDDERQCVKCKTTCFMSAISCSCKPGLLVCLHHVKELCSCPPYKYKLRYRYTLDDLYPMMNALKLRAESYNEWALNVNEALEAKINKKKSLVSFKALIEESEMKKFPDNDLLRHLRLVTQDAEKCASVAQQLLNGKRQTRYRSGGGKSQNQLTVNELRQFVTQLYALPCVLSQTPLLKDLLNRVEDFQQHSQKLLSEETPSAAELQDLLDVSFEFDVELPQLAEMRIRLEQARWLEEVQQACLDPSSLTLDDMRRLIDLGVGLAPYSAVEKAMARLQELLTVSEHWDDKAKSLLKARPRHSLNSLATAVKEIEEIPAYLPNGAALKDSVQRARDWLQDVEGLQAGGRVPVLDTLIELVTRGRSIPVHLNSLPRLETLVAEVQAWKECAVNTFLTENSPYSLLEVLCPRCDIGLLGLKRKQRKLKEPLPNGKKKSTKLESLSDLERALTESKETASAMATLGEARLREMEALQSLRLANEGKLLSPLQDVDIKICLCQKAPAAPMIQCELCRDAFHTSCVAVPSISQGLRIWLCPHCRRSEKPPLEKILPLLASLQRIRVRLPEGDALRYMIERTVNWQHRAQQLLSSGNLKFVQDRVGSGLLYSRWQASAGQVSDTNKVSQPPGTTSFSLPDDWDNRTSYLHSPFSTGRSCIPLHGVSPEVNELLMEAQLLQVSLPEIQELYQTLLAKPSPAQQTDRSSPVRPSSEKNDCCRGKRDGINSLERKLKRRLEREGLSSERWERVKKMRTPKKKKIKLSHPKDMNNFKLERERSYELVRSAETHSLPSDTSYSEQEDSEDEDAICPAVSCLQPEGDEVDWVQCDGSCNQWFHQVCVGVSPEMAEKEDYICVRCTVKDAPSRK
T3 sequence (Q96KQ7 786-1210): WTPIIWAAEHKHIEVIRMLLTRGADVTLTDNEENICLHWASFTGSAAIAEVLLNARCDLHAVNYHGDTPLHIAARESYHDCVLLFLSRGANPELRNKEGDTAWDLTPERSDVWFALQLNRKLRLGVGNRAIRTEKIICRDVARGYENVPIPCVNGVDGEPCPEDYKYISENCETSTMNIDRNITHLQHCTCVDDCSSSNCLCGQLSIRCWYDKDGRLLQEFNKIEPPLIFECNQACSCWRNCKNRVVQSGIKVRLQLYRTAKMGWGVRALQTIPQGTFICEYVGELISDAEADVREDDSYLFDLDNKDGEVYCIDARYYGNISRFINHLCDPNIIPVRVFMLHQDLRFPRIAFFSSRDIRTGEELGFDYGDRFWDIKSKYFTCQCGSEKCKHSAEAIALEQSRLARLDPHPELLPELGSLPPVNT
T2 sequence (Q9BY66 whole entry): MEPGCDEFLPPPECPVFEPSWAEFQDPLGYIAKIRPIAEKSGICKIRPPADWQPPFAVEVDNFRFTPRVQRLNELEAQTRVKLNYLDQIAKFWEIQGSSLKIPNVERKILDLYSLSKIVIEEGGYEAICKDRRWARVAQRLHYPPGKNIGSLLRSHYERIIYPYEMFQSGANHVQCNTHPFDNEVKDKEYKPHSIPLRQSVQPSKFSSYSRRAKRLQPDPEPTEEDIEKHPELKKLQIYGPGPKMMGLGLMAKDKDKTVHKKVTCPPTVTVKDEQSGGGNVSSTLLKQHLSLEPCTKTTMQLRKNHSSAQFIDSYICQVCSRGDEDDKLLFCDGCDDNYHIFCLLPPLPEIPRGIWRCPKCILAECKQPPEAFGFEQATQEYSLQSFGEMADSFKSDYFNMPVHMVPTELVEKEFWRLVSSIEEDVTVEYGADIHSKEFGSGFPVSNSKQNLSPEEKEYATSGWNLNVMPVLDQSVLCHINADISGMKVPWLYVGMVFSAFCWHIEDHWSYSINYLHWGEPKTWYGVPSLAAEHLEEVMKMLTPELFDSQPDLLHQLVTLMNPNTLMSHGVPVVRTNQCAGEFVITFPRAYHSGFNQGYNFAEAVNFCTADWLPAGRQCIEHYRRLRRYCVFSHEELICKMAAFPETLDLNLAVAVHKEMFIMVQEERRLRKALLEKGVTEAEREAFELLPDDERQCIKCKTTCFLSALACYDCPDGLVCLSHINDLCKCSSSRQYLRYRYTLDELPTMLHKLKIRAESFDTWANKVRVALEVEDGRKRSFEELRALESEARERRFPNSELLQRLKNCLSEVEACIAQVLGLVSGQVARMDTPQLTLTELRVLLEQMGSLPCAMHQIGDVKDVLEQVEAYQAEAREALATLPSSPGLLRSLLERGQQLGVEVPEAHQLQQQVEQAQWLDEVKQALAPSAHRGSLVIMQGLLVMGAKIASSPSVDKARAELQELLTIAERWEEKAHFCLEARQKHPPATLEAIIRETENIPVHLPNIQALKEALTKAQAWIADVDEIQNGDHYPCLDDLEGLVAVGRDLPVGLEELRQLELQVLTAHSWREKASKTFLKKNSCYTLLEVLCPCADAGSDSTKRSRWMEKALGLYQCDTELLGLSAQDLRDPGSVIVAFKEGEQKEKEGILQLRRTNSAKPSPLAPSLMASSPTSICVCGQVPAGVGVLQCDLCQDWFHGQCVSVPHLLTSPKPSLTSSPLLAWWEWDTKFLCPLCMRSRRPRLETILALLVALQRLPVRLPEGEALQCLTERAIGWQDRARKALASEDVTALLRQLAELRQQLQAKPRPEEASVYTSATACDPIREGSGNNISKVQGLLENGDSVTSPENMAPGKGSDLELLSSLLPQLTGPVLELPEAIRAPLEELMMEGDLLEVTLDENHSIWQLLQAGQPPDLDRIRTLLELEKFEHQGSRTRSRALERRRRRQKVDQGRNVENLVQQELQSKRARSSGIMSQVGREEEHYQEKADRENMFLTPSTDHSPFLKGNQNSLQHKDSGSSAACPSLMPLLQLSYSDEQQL
T4 sequence (Q96L73 1538-2696): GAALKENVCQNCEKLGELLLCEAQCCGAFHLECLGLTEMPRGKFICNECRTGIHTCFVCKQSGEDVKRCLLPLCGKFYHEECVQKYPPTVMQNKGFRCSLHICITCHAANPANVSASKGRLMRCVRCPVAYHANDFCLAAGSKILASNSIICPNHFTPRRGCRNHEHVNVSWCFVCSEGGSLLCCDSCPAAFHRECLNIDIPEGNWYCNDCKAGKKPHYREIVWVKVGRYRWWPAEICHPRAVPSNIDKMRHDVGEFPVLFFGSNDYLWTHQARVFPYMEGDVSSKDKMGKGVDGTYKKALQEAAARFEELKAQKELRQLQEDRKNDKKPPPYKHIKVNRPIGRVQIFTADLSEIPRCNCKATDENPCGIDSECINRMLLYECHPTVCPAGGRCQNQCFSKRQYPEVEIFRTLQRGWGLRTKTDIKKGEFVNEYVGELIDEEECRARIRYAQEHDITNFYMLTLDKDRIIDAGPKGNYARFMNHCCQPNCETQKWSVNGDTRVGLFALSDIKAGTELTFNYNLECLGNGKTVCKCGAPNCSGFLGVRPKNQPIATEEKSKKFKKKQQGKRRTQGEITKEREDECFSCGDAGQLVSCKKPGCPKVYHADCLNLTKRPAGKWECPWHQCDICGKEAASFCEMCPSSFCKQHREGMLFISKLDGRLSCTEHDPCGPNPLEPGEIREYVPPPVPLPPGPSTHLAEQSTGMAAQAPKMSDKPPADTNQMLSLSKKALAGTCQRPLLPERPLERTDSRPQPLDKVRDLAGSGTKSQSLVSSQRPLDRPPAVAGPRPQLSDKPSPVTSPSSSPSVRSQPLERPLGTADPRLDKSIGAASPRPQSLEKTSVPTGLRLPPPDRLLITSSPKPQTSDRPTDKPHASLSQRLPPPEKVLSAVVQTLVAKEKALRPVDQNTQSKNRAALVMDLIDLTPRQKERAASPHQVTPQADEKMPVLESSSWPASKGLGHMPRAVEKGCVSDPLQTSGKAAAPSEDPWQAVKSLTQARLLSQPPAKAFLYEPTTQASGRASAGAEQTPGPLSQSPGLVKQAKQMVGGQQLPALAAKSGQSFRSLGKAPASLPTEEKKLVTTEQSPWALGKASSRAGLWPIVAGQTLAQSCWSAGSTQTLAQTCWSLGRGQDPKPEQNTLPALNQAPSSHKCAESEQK
Protocol for Tolerability in rats: Animals were sacrificed 24 hours post final dose and approximately 100 mg of liver (left lateral lobe), lung, and kidney tissue was collected. Additionally, one mL of venous blood for PBMC isolation was collected into K2EDTA vacutainer tubes (Thermo Fisher; BD367835). […] Diluted whole blood was layered onto an equal volume of HISTOPAQUE-1077 (Sigma; 10771) gradient medium and centrifuged at 400 x g for 30 minutes with the centrifuge brake switch off. PBMCs were collected at the plasma-HISTOPAQUE-1077 interface and washed three times with DPBS by centrifugation at 500 x g for 10 minutes. Tissue samples and PBMCs were snap frozen using liquid nitrogen and stored at -80°C for subsequent H3K4me3:H3 analysis by ELISA.

For the compound `CCN(CCN(C)C)C(=O)CNCc1cc(C(=O)O)ccn1` [GS-080], the “Fold Selectivity Compared to KDM5A” value on KDM5B (IC50 of KDM5B over KDM5A) was 1 fold; on KDM5D, 183 fold; at KDM1A (IC50 of KDM1A over KDM5A), > 278,000 fold. Further, the pIC50 was 9.42 on KDM5B (enzyme concentration 1.2 nM, IC50 lower than enzyme concentration, likely underestimates potency); under 4.00 at G9a; under 4.00 against KDM1A (enzyme concentration 0.25 nM); under 4.00 against NSD1.

As to `CCOC(=O)c1ccnc(CNCC(=O)N(CC)CCN(C)C)c1` [GS-5801], in the data set “Tolerability in rats”, the adverse effects entry was “no adverse effects were observed”.

The record behind these values is publication PMC9728921, “Characterization of a KDM5 small molecule inhibitor with antiviral activity against hepatitis B virus” (PLOS ONE, 2022).
